Laboratory results published in publication PMC10408569, “Recruitment of hexahydroquinoline as anticancer scaffold targeting inhibition of wild and mutants EGFR (EGFR^WT, EGFR^T790M, and EGFR^L858R)” (Journal of Enzyme Inhibition and Medicinal Chemistry, 2023).

Legend:
Test in all cases: NCI-60 anticancer screening (SRB)
Format in all cases: cell-based
[1] = test system: MCF7; settings: Homo sapiens; MCF7, breast cancer; one dose 10 μM; read-out: Growth Inhibition Percentage (GI %)
[2] = test system: MALME-3M; settings: Homo sapiens, melanoma, one dose 10 μM, read-out: Growth Inhibition Percentage (GI %)
[3] = test system: U251; settings: Homo sapiens, U-251; U251, CNS cancer; one dose 10 μM; read-out: Growth Inhibition Percentage (GI %)
[4] = test system: DU-145; settings: Homo sapiens; DU-145, prostate cancer; one dose 10 μM; read-out: Growth Inhibition Percentage (GI %)
[5] = test system: CCRF-CEM; settings: Homo sapiens, leukemia, one dose 10 μM, read-out: Growth Inhibition Percentage (GI %)
[6] = test system: EKVX; settings: Homo sapiens, NSC lung cancer, one dose 10 μM, read-out: Growth Inhibition Percentage (GI %)
[7] = test system: COLO 205; settings: Homo sapiens; COLO 205, colon cancer; one dose 10 μM; read-out: Growth Inhibition Percentage (GI %)
[8] = test system: SF-539; settings: Homo sapiens; SF-539, CNS cancer; one dose 10 μM; read-out: Growth Inhibition Percentage (GI %)
[9] = test system: 786-0; settings: Homo sapiens; 786-0, renal cancer; one dose 10 μM; read-out: Growth Inhibition Percentage (GI %)
[10] = test system: NCI-H460; settings: Homo sapiens; NCI-H460, NSC lung cancer; one dose 10 μM; read-out: Growth Inhibition Percentage (GI %)
[11] = test system: SF-295; settings: Homo sapiens; SF-295, CNS cancer; one dose 10 μM; read-out: Growth Inhibition Percentage (GI %)
[12] = test system: CAKI-1; settings: Homo sapiens; CAKI-1, renal cancer; one dose 10 μM; read-out: Growth Inhibition Percentage (GI %)
[13] = test system: BT-549; settings: Homo sapiens; BT-549, breast cancer; one dose 10 μM; read-out: Growth Inhibition Percentage (GI %)
[14] = test system: A498; settings: Homo sapiens; A498, renal cancer; one dose 10 μM; read-out: Growth Inhibition Percentage (GI %)
[15] = test system: TK-10; settings: Homo sapiens; TK-10, renal cancer; one dose 10 μM; read-out: Growth Inhibition Percentage (GI %)
[16] = test system: UACC-62; settings: Homo sapiens; UACC-62, melanoma; one dose 10 μM; read-out: Growth Inhibition Percentage (GI %)
[17] = test system: SK-MEL-28; settings: Homo sapiens; SK-MEL-28, melanoma; one dose 10 μM; read-out: Growth Inhibition Percentage (GI %)
[18] = test system: NCI/ADR-RES; settings: Homo sapiens, ovarian cancer, one dose 10 μM, read-out: Growth Inhibition Percentage (GI %)
[19] = test system: MDA-MB-231; settings: Homo sapiens; MDA-MB-231, breast cancer; one dose 10 μM; read-out: Growth Inhibition Percentage (GI %)
[20] = test system: HCT-116; settings: Homo sapiens; HCT-116, colon cancer; one dose 10 μM; read-out: Growth Inhibition Percentage (GI %)
[21] = test system: HOP-92; settings: Homo sapiens; HOP-92, NSC lung cancer; one dose 10 μM; read-out: Growth Inhibition Percentage (GI %)
[22] = test system: HT29; settings: Homo sapiens, HT-29; HT29, colon cancer; one dose 10 μM; read-out: Growth Inhibition Percentage (GI %)
[23] = test system: SN 12C; settings: Homo sapiens, SN12C; SN 12C, renal cancer; one dose 10 μM; read-out: Growth Inhibition Percentage (GI %)
[24] = test system: PC-3; settings: Homo sapiens; PC-3, prostate cancer; one dose 10 μM; read-out: Growth Inhibition Percentage (GI %)
[25] = test system: UO-31; settings: Homo sapiens; UO-31, renal cancer; one dose 10 μM; read-out: Growth Inhibition Percentage (GI %)
[26] = test system: HS 578T; settings: Homo sapiens; HS 578T, breast cancer; one dose 10 μM; read-out: Growth Inhibition Percentage (GI %)
[27] = test system: IGROV1; settings: Homo sapiens, IGROV-1; IGROV1, ovarian cancer; one dose 10 μM; read-out: Growth Inhibition Percentage (GI %)
[28] = test system: M14; settings: Homo sapiens; M14, melanoma; one dose 10 μM; read-out: Growth Inhibition Percentage (GI %)

With CCOC(=O)C1=C(N)N(c2ccccc2)C2=C(C(=O)CC(C)(C)C2)C1c1cccnc1 (racemic) [12d] the inhibition at 10 µM [1] was < 10%, the inhibition at 10 µM [2] was < 10% and the inhibition at 10 µM [3] was < 10%. The inhibition at 10 µM [4] was < 10%, the inhibition at 10 µM [5] was < 10% and the inhibition at 10 µM [6] was < 10%. The inhibition at 10 µM [7] was < 10%, the inhibition at 10 µM [8] was < 10% and the inhibition at 10 µM [9] was < 10%. The inhibition at 10 µM [10] was < 10%, the inhibition at 10 µM [11] was < 10% and the inhibition at 10 µM [12] was < 10%. For the same molecule, the inhibition at 10 µM [13] was < 10%, the inhibition at 10 µM [14] was < 10% and the inhibition at 10 µM [15] was < 10%. For the same molecule, the inhibition at 10 µM [16] was 12%, the inhibition at 10 µM [17] was < 10% and the inhibition at 10 µM [18] was 13%. The inhibition at 10 µM [19] was < 10%, the inhibition at 10 µM [20] was < 10% and the inhibition at 10 µM [21] was < 10%. For the same molecule, the inhibition at 10 µM [22] was < 10%, the inhibition at 10 µM [23] was < 10% and the inhibition at 10 µM [24] was < 10%. The inhibition at 10 µM [25] was 77%, the inhibition at 10 µM [26] was < 10% and the inhibition at 10 µM [27] was < 10%. The inhibition at 10 µM [28] was < 10%.
In the case of CCOC(=O)C1=C(N)N(c2ccccc2)C2=C(C(=O)CC(C)(C)C2)C1c1ccc(F)cc1 (racemic) [8a, (±)-Ethyl 2-amino-4–(4-fluorophenyl)-7,7-dimethyl-5-oxo-1-phenyl-1,4,5,6,7,8-hexahydroquinoline-3-carboxylate], the inhibition at 10 µM [1] is reported as < 10%, the inhibition at 10 µM [2] is reported as < 10% and the inhibition at 10 µM [3] is reported as < 10%. For the same molecule, the inhibition at 10 µM [4] was < 10%, the inhibition at 10 µM [5] was < 10% and the inhibition at 10 µM [6] was < 10%. The inhibition at 10 µM [7] was < 10%, the inhibition at 10 µM [8] was < 10% and the inhibition at 10 µM [9] was < 10%. For the same molecule, the inhibition at 10 µM [10] was < 10%, the inhibition at 10 µM [11] was < 10% and the inhibition at 10 µM [12] was < 10%. For the same molecule, the inhibition at 10 µM [13] was < 10%, the inhibition at 10 µM [14] was < 10% and the inhibition at 10 µM [15] was < 10%. The inhibition at 10 µM [16] was < 10%, the inhibition at 10 µM [17] was < 10% and the inhibition at 10 µM [18] was < 10%. The inhibition at 10 µM [19] was < 10%, the inhibition at 10 µM [20] was < 10% and the inhibition at 10 µM [21] was < 10%. The inhibition at 10 µM [22] was < 10%, the inhibition at 10 µM [23] was < 10% and the inhibition at 10 µM [24] was < 10%. For the same molecule, the inhibition at 10 µM [25] was < 10%, the inhibition at 10 µM [26] was < 10% and the inhibition at 10 µM [27] was < 10%. For the same molecule, the inhibition at 10 µM [28] was < 10%.
With CCOC(=O)C1=C(N)N(c2ccccc2)C2=C(C(=O)CC(C)(C)C2)C1c1ccc([N+](=O)[O-])cc1 (racemic) [8i, (±)-Ethyl 2-amino-4–(4-nitrophenyl)-7,7-dimethyl-5-oxo-1-phenyl-1,4,5,6,7,8-hexahydroquinoline-3-carboxylate] the inhibition at 10 µM [1] was 16%, the inhibition at 10 µM [2] was < 10% and the inhibition at 10 µM [3] was < 10%. For the same molecule, the inhibition at 10 µM [4] was < 10%, the inhibition at 10 µM [5] was 11% and the inhibition at 10 µM [6] was 14%. The inhibition at 10 µM [7] was < 10%, the inhibition at 10 µM [8] was < 10% and the inhibition at 10 µM [9] was < 10%. For the same molecule, the inhibition at 10 µM [10] was < 10%, the inhibition at 10 µM [11] was < 10% and the inhibition at 10 µM [12] was 32%. For the same molecule, the inhibition at 10 µM [13] was < 10%, the inhibition at 10 µM [14] was < 10% and the inhibition at 10 µM [15] was < 10%. For the same molecule, the inhibition at 10 µM [16] was 33%, the inhibition at 10 µM [17] was < 10% and the inhibition at 10 µM [18] was < 10%. The inhibition at 10 µM [19] was < 10%, the inhibition at 10 µM [20] was 16% and the inhibition at 10 µM [21] was < 10%. For the same molecule, the inhibition at 10 µM [22] was < 10%, the inhibition at 10 µM [23] was < 10% and the inhibition at 10 µM [24] was 32%. The inhibition at 10 µM [25] was < 10%, the inhibition at 10 µM [26] was < 10% and the inhibition at 10 µM [27] was < 10%. The inhibition at 10 µM [28] was < 10%.
CCOC(=O)C1=C(N)N(c2ccc(Cl)cc2)C2=C(C(=O)CC(C)(C)C2)C1c1ccc([N+](=O)[O-])cc1 (racemic) [8k, (±)-Ethyl2-amino-1–(4-chlorophenyl)-7,7-dimethyl-4–(4-nitrophenyl)-5-oxo-1,4,5,6,7,8-hexahydroquinoline-3-carboxylate] was tested, and the inhibition at 10 µM [1] was 19%, the inhibition at 10 µM [2] was < 10% and the inhibition at 10 µM [3] was < 10%. The inhibition at 10 µM [4] was < 10%, the inhibition at 10 µM [5] was < 10% and the inhibition at 10 µM [6] was 15%. The inhibition at 10 µM [7] was < 10%, the inhibition at 10 µM [8] was < 10% and the inhibition at 10 µM [9] was < 10%. The inhibition at 10 µM [10] was < 10%, the inhibition at 10 µM [11] was < 10% and the inhibition at 10 µM [12] was 11%. For the same molecule, the inhibition at 10 µM [13] was < 10%, the inhibition at 10 µM [14] was < 10% and the inhibition at 10 µM [15] was < 10%. The inhibition at 10 µM [16] was 29%, the inhibition at 10 µM [17] was < 10% and the inhibition at 10 µM [18] was 16%. The inhibition at 10 µM [19] was < 10%, the inhibition at 10 µM [20] was 34% and the inhibition at 10 µM [21] was < 10%. For the same molecule, the inhibition at 10 µM [22] was < 10%, the inhibition at 10 µM [23] was < 10% and the inhibition at 10 µM [24] was 26%. The inhibition at 10 µM [25] was 32%, the inhibition at 10 µM [26] was < 10% and the inhibition at 10 µM [27] was < 10%. For the same molecule, the inhibition at 10 µM [28] was < 10%.
